Test systems include IGROV1 ovarian; HOP-92 NSCLC; SK-OV-3 ovarian; SNB-19 CNS; SF-295 CNS; UO-31 renal; MCF7 breast; NCI-H226 lung; T-47D breast; HS 578T breast.
Holding throughout (assay): NCI anticancer screen, dose series, 48 h

GI50 and TGI data for eight molecules are collected here from PubChem BioAssay (NCI).

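Briefly, cells in 96-well plates were exposed to five compound concentrations for 48 h, and endpoints were estimated by linear interpolation. At the GI50, growth is halved. TGI is the concentration that stops growth completely.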

As for `COc1cc2c3c(n(C)c(=O)c2cc1OC)-c1cc2c(cc1/C3=C\CCCN)OCO2`, the GI50 was 2.24 µM with IGROV1 ovarian; 0.696 µM in the test on HOP-92 NSCLC; 41 µM in the test with SK-OV-3 ovarian; 18.7 µM in the test with SNB-19 CNS; 1.83 µM with SF-295 CNS; 3.18 µM in the test with UO-31 renal. In addition, the GI50 in the test with MCF7 breast was 3.95 µM; with NCI-H226 lung it was 9.33 µM; with T-47D breast it was 10.9 µM; in the test on HS 578T breast, 24.7 µM. The TGI is 32.4 µM with IGROV1 ovarian; 7.22 µM in the test with HOP-92 NSCLC; over 100 µM with SK-OV-3 ovarian; over 100 µM in the test with SNB-19 CNS; 8.15 µM in the test with SF-295 CNS; 20.3 µM in the test on UO-31 renal. For the same molecule, the TGI in the test with MCF7 breast was 42.8 µM; in the test with NCI-H226 lung, 31.6 µM; with T-47D breast, over 100 µM; with HS 578T breast it was 87.6 µM.
Regarding `O=C(Nc1ccc(Cl)cc1)c1cccc(NC2=C(Cl)C(=O)N(Cc3ccccc3)C2=O)c1`, the GI50 in the test on IGROV1 ovarian is 2.61 µM; in the test on HOP-92 NSCLC, 9.85 µM; in the test with SK-OV-3 ovarian, 29.6 µM; with SNB-19 CNS, 17.6 µM; in the test on SF-295 CNS it was 15.5 µM; with UO-31 renal, 13 µM. Also, the GI50 in the test on MCF7 breast was 10.3 µM; in the test on NCI-H226 lung, 4.31 µM; in the test on T-47D breast, 11.4 µM; in the test with HS 578T breast, 13.2 µM. Moreover, the TGI was 18.1 µM in the test with IGROV1 ovarian; 21.5 µM with HOP-92 NSCLC; over 100 µM in the test on SK-OV-3 ovarian; 45.9 µM in the test on SNB-19 CNS; 61.9 µM with SF-295 CNS; 30.4 µM in the test on UO-31 renal. For the same molecule, the TGI was 42.3 µM in the test on MCF7 breast, 21.3 µM with NCI-H226 lung, 78.5 µM with T-47D breast and 46.3 µM with HS 578T breast.
Consider `NC1(C(=O)OCc2ccccc2)CCCC1`, for which the TGI in the test with IGROV1 ovarian turned out to be 38.8 µM; in the test with HOP-92 NSCLC it was 38.4 µM; with SK-OV-3 ovarian, 71.1 µM; in the test with SNB-19 CNS it was 61.1 µM; in the test on SF-295 CNS, 34.7 µM; in the test on UO-31 renal, 43.3 µM. In addition, the TGI in the test with MCF7 breast was over 100 µM; in the test on NCI-H226 lung it was 91.7 µM; with T-47D breast it was over 100 µM; in the test with HS 578T breast, 79.7 µM.
`CCCCCCCC(=O)SCC/C=C/[C@@H]1CC(=O)NCc2cc(ccn2)C2=N[C@@](C)(CS2)C(=O)N[C@@H](C(C)C)C(=O)O1`: the GI50 in the test on IGROV1 ovarian was 0.00956 µM; in the test on HOP-92 NSCLC, 0.0268 µM; in the test with SK-OV-3 ovarian, 0.00841 µM; in the test with SNB-19 CNS, 0.109 µM; in the test with SF-295 CNS, 0.0166 µM; in the test on UO-31 renal, 0.0264 µM. For the same molecule, the GI50 is 0.0377 µM with MCF7 breast, 0.0818 µM in the test with NCI-H226 lung, 0.0838 µM in the test on T-47D breast and 0.00745 µM in the test with HS 578T breast. The TGI with IGROV1 ovarian was 0.132 µM; in the test on HOP-92 NSCLC, 0.214 µM; in the test on SK-OV-3 ovarian it was 0.0716 µM; with SNB-19 CNS it was over 33.3 µM; in the test with SF-295 CNS, 0.147 µM; in the test with UO-31 renal, 0.426 µM. Moreover, the TGI in the test with MCF7 breast is over 33.3 µM; in the test with NCI-H226 lung, 1.62 µM; with T-47D breast it was 0.616 µM; in the test on HS 578T breast it was 0.203 µM.
With `O=C(CCc1nnc2sc(-c3ccc(Cl)cc3Cl)nn12)c1nc2ncccc2[nH]1`, the GI50 in the test with IGROV1 ovarian was 1.82 µM; with HOP-92 NSCLC it was 1.19 µM; with SK-OV-3 ovarian, 21.5 µM; with SNB-19 CNS, 3.53 µM; in the test on SF-295 CNS, 1.83 µM; with UO-31 renal it was 1.13 µM. The GI50 in the test with MCF7 breast was 2.59 µM; with NCI-H226 lung, 1.7 µM; with T-47D breast, 1.47 µM; with HS 578T breast, 2.71 µM. The TGI in the test on IGROV1 ovarian came out at 3.8 µM; with HOP-92 NSCLC it was 2.6 µM; with SK-OV-3 ovarian it was 58 µM; in the test with SNB-19 CNS, 16.7 µM; in the test on SF-295 CNS, 3.44 µM; with UO-31 renal, 2.33 µM. Further, the TGI in the test on MCF7 breast was over 100 µM; with NCI-H226 lung, 3.66 µM; in the test with T-47D breast it was 5.03 µM; in the test with HS 578T breast, 8.02 µM.
In the case of `CC[C@H](Nc1ncnc2nc[nH]c12)c1oc2ccccc2c(=O)c1-c1cccc(F)c1`, the GI50 in the test with IGROV1 ovarian was 15.2 µM; with HOP-92 NSCLC it was 4.99 µM; in the test with SK-OV-3 ovarian it was 24.1 µM; in the test with SNB-19 CNS it was 30.5 µM; in the test with SF-295 CNS it was 18.4 µM; with UO-31 renal, 5.93 µM. Further, the GI50 in the test with MCF7 breast was 21.1 µM; in the test with NCI-H226 lung it was 30.3 µM; in the test on T-47D breast, 8.24 µM; in the test on HS 578T breast it was 14.1 µM. Further, the TGI in the test with IGROV1 ovarian is 53.8 µM; in the test on HOP-92 NSCLC, 63.7 µM; in the test with SK-OV-3 ovarian it was over 100 µM; in the test with SNB-19 CNS, over 100 µM; in the test with SF-295 CNS, over 100 µM; in the test on UO-31 renal it was 58 µM. In addition, the TGI was over 100 µM in the test with MCF7 breast, over 100 µM in the test with NCI-H226 lung, over 100 µM with T-47D breast and 86.9 µM with HS 578T breast.
With `Nc1ncnc2c1nnn2C1OC(CO)C(O)C1O` (configuration not stated), the TGI with IGROV1 ovarian is 3.95 µM; with HOP-92 NSCLC, 7 µM; in the test on SK-OV-3 ovarian, 1.95 µM; in the test with SNB-19 CNS, over 52.5 µM; with SF-295 CNS, 7.59 µM; in the test with UO-31 renal, 6.02 µM. Also, the TGI with MCF7 breast stood at 16.8 µM; in the test with NCI-H226 lung it was 12 µM; in the test with T-47D breast, 4.81 µM; in the test on HS 578T breast, 4.72 µM. Besides, the GI50 is 0.265 µM with T-47D breast and 0.467 µM in the test on HS 578T breast.
As to `Cc1cc(I)cc(CN(C)CCCN2CCCCC2)c1O`, the GI50 in the test on IGROV1 ovarian was 15.4 µM; in the test with HOP-92 NSCLC, 11.6 µM; in the test on SK-OV-3 ovarian, 15.7 µM; in the test with SNB-19 CNS, 17.4 µM; in the test with SF-295 CNS, 2.39 µM; in the test on UO-31 renal it was 11.8 µM. Further, the GI50 is 16.7 µM in the test with MCF7 breast, 28.1 µM in the test on NCI-H226 lung, 15.8 µM in the test with T-47D breast and 9.75 µM with HS 578T breast. Further, the TGI with IGROV1 ovarian amounted to 32.5 µM; in the test with HOP-92 NSCLC, 38.6 µM; in the test on SK-OV-3 ovarian, 31.6 µM; in the test on SNB-19 CNS, 40.2 µM; with SF-295 CNS, 12.9 µM; in the test with UO-31 renal, 31.1 µM. The TGI with MCF7 breast was 35.9 µM; in the test with NCI-H226 lung, over 100 µM; in the test with T-47D breast it was 43 µM; with HS 578T breast it was 75.6 µM.
